From patent publication US12209086B2, “FGFR3 inhibitor compounds” (ELI LILLY AND COMPANY, priority 2021, dated 2025)

target: T1, FGFR3 protein (Homo sapiens, UniProt P22607); experiment: FGFR3 enzyme assay (KinEASE-TK HTRF kinase assay); assay type: biochemical; conditions: 0.25 nM enzyme, ATP at Km, 15 min pre-incubation on ice, 30 min at 30° C.
T1 construct: purchased Reaction Biology 1068
Protocol: FGFR3 and FGFR1 Enzyme Assay
Enzyme activity was monitored using the KinEASE™-TK Assay Kit (Cisflio, Cat. No. 62TK0PEC) according to the manufacturer's instructions. All assays were performed at the respective KmATP for each kinase in KinEASE™ Kinase Buffer.
Titration of compounds were performed in a half-log manner in 100% dimethyl sulfoxide (DMSO) starting at 1 uM. Prior to the initiation of the reaction by adenosine triphosphate (ATP), FGFR1 protein and compounds were pre-incubated for 15 minutes at room temperature, and FGFR3 protein and compounds were pre-incubated on ice for 15 minutes. Reactions proceeded for 30 min at 30° C. Plates were quenched by the addition of the Anti-TK cryptate antibody/Streptavidin-XL665 mixture.
Ratios were converted to a percent of control (POC) using a ratiometric emission factor. One hundred POC was determined using no test compound, and 0 POC was determined in the presence of 1 uM of an appropriate control inhibitor.

T1 sequence (P22607 23-806): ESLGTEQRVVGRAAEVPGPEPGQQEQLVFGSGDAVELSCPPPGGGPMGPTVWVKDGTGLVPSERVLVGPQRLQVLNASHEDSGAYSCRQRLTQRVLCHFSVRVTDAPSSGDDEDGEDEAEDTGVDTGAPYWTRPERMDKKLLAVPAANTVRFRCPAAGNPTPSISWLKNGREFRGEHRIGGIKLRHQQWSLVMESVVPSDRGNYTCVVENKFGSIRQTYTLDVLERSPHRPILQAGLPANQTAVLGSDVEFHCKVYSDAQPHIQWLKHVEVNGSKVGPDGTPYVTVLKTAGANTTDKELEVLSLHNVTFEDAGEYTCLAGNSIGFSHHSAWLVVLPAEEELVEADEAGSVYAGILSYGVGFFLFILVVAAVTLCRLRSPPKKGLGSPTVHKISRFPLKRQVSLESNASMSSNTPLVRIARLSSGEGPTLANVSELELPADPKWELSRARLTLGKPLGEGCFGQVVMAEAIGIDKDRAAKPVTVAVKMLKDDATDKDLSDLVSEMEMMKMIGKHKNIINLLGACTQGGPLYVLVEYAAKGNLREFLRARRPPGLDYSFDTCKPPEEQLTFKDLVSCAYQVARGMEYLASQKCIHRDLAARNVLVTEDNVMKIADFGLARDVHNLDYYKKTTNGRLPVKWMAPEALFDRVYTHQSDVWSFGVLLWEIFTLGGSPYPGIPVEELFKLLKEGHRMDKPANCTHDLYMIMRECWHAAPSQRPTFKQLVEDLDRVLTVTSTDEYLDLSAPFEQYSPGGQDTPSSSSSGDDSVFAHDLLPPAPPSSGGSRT

Row | SMILES | IC50
1 | Cc1c(-c2cc(OC(C)c3ccccc3-c3ccon3)n3c(C#N)cnc3c2)nnn1C1CCN(C#N)CC1 (single isomer, unassigned) [Example 142, 7-[1-(1-Cyano-4-piperidyl)-5-methyl-triazol-4-yl]-5-[1-(2-isoxazol-3-ylphenyl)ethoxy] imidazo [1,2-a]pyridine-3-carbonitrile] | < 100 nM
2 | Cc1c(-c2cc(OC(c3ccccn3)C(C)(C)C)n3c(C#N)cnc3c2)nnn1C1CCN(C#N)CC1 (single isomer, unassigned) [Example 264, 7-[1-(1-Cyano-4-piperidyl)-5-methyl-triazol-4-yl]-5-[2,2-dimethyl-1-(2-pyridyl)propoxy] imidazo[1,2-a]pyridine-3-carbonitrile] | < 100 nM
3 | Cc1c(-c2cc(OC(C)c3ccccc3S(C)(=O)=O)c3c(C#N)cnn3c2)cnn1C1CCN(C#N)CC1 (single isomer, unassigned; isomer 2) [Example 77, 6-[1-(1-Cyano-4-piperidyl)-5-methyl-pyrazol-4-yl]-4-[1-(2-methylsulfonylphenyl)ethoxy]pyrazolo[1,5-a]pyridine-3-carbonitrile, Isomer 2] | < 100 nM
4 | Cc1c(-c2cc(OC(C)c3cncc4ccccc34)c3c(C#N)cnn3c2)nnn1C1CCN(C#N)CC1 (stereo not drawn) [Example 24, 6-[1-(1-Cyano-4-piperidyl)-5-methyl-triazol-4-yl]-4-[1-(4-isoquinolyl)ethoxy] pyrazolo[1,5-a] pyridine-3-carbonitrile] | < 50 nM
5 | Cc1c(-c2cc(OCC(C)(O)c3ccc(F)cn3)c3c(F)cnn3c2)nnn1C1CCN(C#N)CC1 (single isomer, unassigned) [Example 157, 4-[4-[3-Fluoro-4-[2-(5-fluoro-2-pyridyl)-2-hydroxy-propoxy]pyrazolo[1,5-a]pyridin-6-yl]-5-methyl-triazol-1-yl]piperidine-1-carbonitrile] | < 50 nM
6 | Cc1c(-c2cc(OC(C)c3cncc(C(F)(F)F)n3)n3c(C#N)cnc3c2)nnn1C1CCN(C#N)CC1 (single isomer, unassigned) [Example 99, 7-[1-(1-Cyano-4-piperidyl)-5-methyl-triazol-4-yl]-5-[1-[6-(trifluoromethyl)pyrazin-2-yl]ethoxy]imidazo [1,2-a]pyridine-3-carbonitrile] | < 50 nM
7 | Cc1c(-c2cc(O[C@H](C)c3ccccn3)n3c(Cl)cnc3c2)nnn1C1CN(C2CCN(C#N)CC2)C1 [Example 233, 4-[3-[4-[3-Chloro-5-[(1R)-1-(2-pyridyl)ethoxy]imidazo[1,2-a]pyridin-7-yl]-5-methyl-triazol-1-yl]azetidin-1-yl]piperidine-1-carbonitrile] | < 100 nM
8 | COCC(Oc1cc(-c2nnn(C3CCN(C#N)CC3)c2C)cn2ncc(C#N)c12)c1ccc(F)cn1 (single isomer, unassigned; isomer 1) [Example 53, 6-[1-(1-Cyano-4-piperidyl)-5-methyl-triazol-4-yl]-4-[1-(5-fluoro-2-pyridyl)-2-methoxy-ethoxy]pyrazolo[1,5-a]pyridine-3-carbonitrile, Isomer 1] | < 50 nM
9 | Cc1c(-c2cc(O[C@H](C)C3CCC3)c3c(C#N)cnn3c2)cnn1C1CCN(C#N)CC1 [Example 195, 4-(4-[3-cyano-4-[(1R)-1-cyclobutylethoxy]pyrazolo[1,5-a]pyridin-6-yl]-5-methylpyrazol-1-yl)piperidine-1-carbonitrile] | < 50 nM
10 | COc1cc(-c2cnn(C3CC4(CCN(C#N)CC4)C3)c2C)cn2ncc(C#N)c12 [Example 171, 2-(4-[3-Cyano-4-methoxypyrazolo[1,5-a]pyridin-6-yl]-5-methylpyrazol-1-yl)-7-azaspiro[3.5]nonane-7-carbonitrile] | < 50 nM
11 | Cc1c(-c2cc(OC(C)c3cncc4cc(F)ccc34)c3c(C#N)cnn3c2)nnn1C1CCN(C#N)CC1 (stereo not drawn) [Example 21, 6-[1-(1-Cyano-4-piperidyl)-5-methyl-triazol-4-yl]-4-[1-(7-fluoro-4-isoquinolyl)ethoxy] pyrazolo[1,5-a] pyridine-3-carbonitrile] | < 50 nM
12 | COCC(Oc1cc(-c2nnn(C3CCN(C#N)CC3)c2C)cc2ncc(C#N)n12)c1ccc(F)cn1 (single isomer, unassigned; isomer 1) [Example 49, 7-[1-(1-Cyano-4-piperidyl)-5-methyl-triazol-4-yl]-5-[1-(5-fluoro-2-pyridyl)-2-methoxy-ethoxy]imidazo[1,2-a]pyridine-3-carbonitrile, Isomer 1] | < 50 nM
13 | Cc1c(-c2cc(OC(C)c3ccccc3C(=O)N(C)C)c3c(C#N)cnn3c2)nnn1C1CCN(C#N)CC1 (single isomer, unassigned; isomer 2) [Example 75, 2-[1-[3-cyano-6-[1-(1-cyano-4-piperidyl)-5-methyl-triazol-4-yl]pyrazolo[1,5-a]pyridin-4-yl]oxyethyl]-N,N-dimethyl-benzamide, Isomer 2] | < 100 nM

Second part, the compound after the results:

Row | IC50 | SMILES
14 | < 50 nM | Cc1c(-c2cc(O[C@H](C)c3ccccn3)n3c(C#N)cnc3c2)nnn1C1CCN(C#N)C(C2CC2)C1 (single isomer, unassigned) [Example 281]
15 | < 50 nM | Cc1nc([C@@H](C)Oc2cc(-c3nnn(C4CCN(C#N)CC4)c3C)cn3ncc(C#N)c23)cs1 [Example 291, 6-[1-(1-Cyano-4-piperidyl)-5-methyl-triazol-4-yl]-4-[(1R)-1-(2-methylthiazol-4-yl)ethoxy]pyrazolo [1,5-a]pyridine-3-carbonitrile]
16 | < 50 nM | COc1cc(-c2cnn(C3CN(C4CCN(C#N)CC4(F)F)C3)c2C)cn2ncc(C#N)c12 (single isomer, unassigned) [Example 179, 4-[3-(4-[3-Cyano-4-methoxypyrazolo[1,5-a]pyridin-6-yl]-5-methylpyrazol-1-yl)azetidin-1-yl]-3,3-difluoropiperidine-1-carbonitrile]
17 | < 50 nM | Cc1c(-c2cc(OCC(O)c3ccc(F)cn3)c3c(Cl)cnn3c2)nnn1C1CCN(C#N)CC1 (single isomer, unassigned) [Example 154, 4-[4-[3-Chloro-4-[2-(5-fluoro-2-pyridyl)-2-hydroxy-ethoxy]pyrazolo[1,5-a]pyridin-6-yl]-5-methyl-triazol-1-yl]piperidine-1-carbonitrile]
18 | < 50 nM | COc1cc(-c2cnn(C3CN([C@@H]4CCN(C#N)C4)C3)c2C)cn2ncc(C#N)c12 [Example 222, (3R)-3-[3-(4-[3-Cyano-4-methoxypyrazolo[1,5-a]pyridin-6-yl]-5-methylpyrazol-1-yl)azetidin-1-yl]pyrrolidine-1-carbonitrile]
19 | < 50 nM | Cc1c(-c2cc(O[C@H](C)c3ccccc3C#N)c3c(Cl)cnn3c2)cnn1C1CCN(C#N)CC1 [Example 297, 4-[4-[3-Chloro-4-[(1R)-1-(2-cyanophenyl)ethoxy]pyrazolo[1,5-a]pyridin-6-yl]-5-methyl-pyrazol-1-yl]piperidine-1-carbonitrile]
20 | < 50 nM | Cc1c(-c2cc(O[C@H](C)C3CCOCC3)c3c(C#N)cnn3c2)cnn1C1CCN(C#N)CC1 [Example 245, 4-(4-[3-Cyano-4-[(1R)-1-(oxan-4-yl)ethoxy]pyrazolo [1,5-a]pyridin-6-yl]-5-methylpyrazol-1-yl)piperidine-1-carbonitrile]
21 | < 50 nM | Cc1c(-c2cc(O[C@H](C)c3ccccn3)n3c(C#N)cnc3c2)nnn1C1CCN(C#N)CC1 [Example 201, 4-(4-[3-Cyano-5-[(1R)-1-(pyridin-2-yl)ethoxy]imidazo [1,2-a]pyridin-7-yl]-5-methyl-1,2,3-triazol-1-yl)piperidine-1-carbonitrile]
22 | < 50 nM | CCC(Oc1cc(-c2nnn(C3CCN(C#N)CC3)c2C)cc2ncc(C#N)n12)c1ccc(F)cn1 (single isomer, unassigned; isomer 1) [Example 51, 7-[1-(1-Cyano-4-piperidyl)-5-methyl-triazol-4-yl]-5-[1-(5-fluoro-2-pyridyl)propoxy]imidazo[1,2-a]pyridine-3-carbonitrile, Isomer 1]
23 | < 50 nM | Cc1c(-c2cc(OC(c3ccc(F)cn3)C3(F)CC3)c3c(C#N)cnn3c2)nnn1C1CCN(C#N)CC1 (stereo not drawn) [Example 26, 6-[1-(1-Cyano-4-piperidyl)-5-methyl-triazol-4-yl]-4-[(1-fluorocyclopropyl)-(5-fluoro-2-pyridyl)methoxy]pyrazolo [1,5-a]pyridine-3-carbonitrile]
24 | < 50 nM | Cc1c(-c2cc(OC(CO)c3ccc(F)cn3)c3c(Cl)cnn3c2)nnn1[C@H]1C[C@@H](N2CC3COCC(C2)N3C#N)C1 (single isomer, unassigned) [Example 280]
25 | < 50 nM | Cc1c(-c2cc(OC(CF)c3ccc(F)cn3)c3c(C#N)cnn3c2)nnn1C1CCN(C#N)CC1 (stereo not drawn) [Example 22, 6-[1-(1-Cyano-4-piperidyl)-5-methyl-triazol-4-yl]-4-[2-fluoro-1-(5-fluoro-2-pyridyl)ethoxy]pyrazolo [1,5-a]pyridine-3-carbonitrile]
26 | < 50 nM | COc1cc(-c2cnn(C3CCN(C4CN(C#N)C4(C)C)CC3)c2C)cn2ncc(C#N)c12 (single isomer, unassigned) [Example 173, 3-[4-(4-[3-Cyano-4-methoxypyrazolo[1,5-a]pyridin-6-yl]-5-methylpyrazol-1-yl)piperidin-1-yl]-2,2-dimethylazetidine-1-carbonitrile]
27 | < 50 nM | Cc1c(-c2cc(OC(CO)c3ccc(F)cn3)c3c(C#N)cnn3c2)cnn1C1CCN(C#N)CC1 (single isomer, unassigned; isomer 1) [Example 43, 6-[1-(1-Cyano-4-piperidyl)-5-methyl-pyrazol-4-yl]-4-[1-(5-fluoro-2-pyridyl)-2-hydroxy-ethoxy]pyrazolo[1,5-a]pyridine-3-carbonitrile, Isomer 1]
